The source of these data is ChEMBL document CHEMBL4411300 (Eur J Med Chem, 2019).

Active and inactive are the calls of the source. The calls are words filed in the database; no cut-off is given here. Bounds are passed on as bounds.

A short description of data set [1]: Nephrotoxicity in Balb/c mouse infected with Trypanosoma cruzi MHOM/Pe/2011/Arequipa DTU 5 trypomastigotes assessed as decrease in serum urea level at 20 mg/kg, po once daily for 5 consecutive days starting from day 10 post infection measured on day 127 post infection relative to control. It counts as toxicity, organism-based. Also noted: scale not given: the % may be the effect or the level left. The following applies: in vivo.

Data set [2] in a line: Hepatotoxicity in Balb/c mouse infected with Trypanosoma cruzi MHOM/Pe/2011/Arequipa DTU 5 trypomastigotes assessed as increase in ratio of serum AST to GOT level at 20 mg/kg, po once daily for 5 consecutive days starting from day 75 post infection measured on day 81 post infection by biochemical analysis relative to control. Conditions: in vivo. It counts as toxicity, organism-based.

A short description of data set [3]: Hepatotoxicity in Balb/c mouse infected with Trypanosoma cruzi MHOM/Pe/2011/Arequipa DTU 5 trypomastigotes assessed as increase in ratio of serum ALT to GPT level at 20 mg/kg, po once daily for 5 consecutive days starting from day 75 post infection measured on day 81 post infection relative to control. It counts as toxicity, organism-based. The following applies: in vivo.

Data set [4] is described as follows: Hepatotoxicity in Balb/c mouse infected with Trypanosoma cruzi MHOM/Pe/2011/Arequipa DTU 5 trypomastigotes assessed as increase in total bilirubin level at 20 mg/kg, po once daily for 5 consecutive days starting from day 75 post infection measured on day 127 post infection relative to control. It counts as toxicity, organism-based. Conditions: in vivo.
The subject of data set [5] is Trypanosoma cruzi. As to the kind of experiment: Antitrypanosomal activity against Trypanosoma cruzi MHOM/Pe/2011/Arequipa DTU 5 trypomastigotes infected in Balb/c mouse assessed as reduction in parasitaemia level at 20 mg/kg, po once daily for 5 consecutive days starting from day 10 post infection measured on day 40 post infection by Neubauer chamber method. It counts as functional, organism-based.

For data set [6], the system named is Trypanosoma cruzi. As to the kind of experiment: Antitrypanosomal activity against Trypanosoma cruzi MHOM/Pe/2011/Arequipa DTU 5 trypomastigotes infected in Balb/c mouse assessed as parasite-free brain at 20 mg/kg, po pretreated once daily for 5 consecutive days starting from day 75 post infection followed by cyclophosphamide-induced immunosuppression on day 100 post infection every 4 days for a maximum of 3 doses measured on day 127 post infection by PCR method. It counts as functional, organism-based.

In data set [7] the test system is Trypanosoma cruzi. As to the kind of experiment: Antitrypanosomal activity against Trypanosoma cruzi MHOM/Pe/2011/Arequipa DTU 5 trypomastigotes infected in Balb/c mouse assessed as parasite-free muscle at 20 mg/kg, po pretreated once daily for 5 consecutive days starting from day 75 post infection followed by cyclophosphamide-induced immunosuppression on day 100 post infection every 4 days for a maximum of 3 doses measured on day 127 post infection by PCR method. It counts as functional, organism-based.

For data set [8], the system named is Trypanosoma cruzi. As to the kind of experiment: Antitrypanosomal activity against Trypanosoma cruzi MHOM/Pe/2011/Arequipa DTU 5 trypomastigotes infected in Balb/c mouse assessed as parasite-free spleen at 20 mg/kg, po pretreated once daily for 5 consecutive days starting from day 75 post infection followed by cyclophosphamide-induced immunosuppression on day 100 post infection every 4 days for a maximum of 3 doses measured on day 127 post infection by PCR method. It counts as functional, organism-based.

The subject of data set [9] is Trypanosoma cruzi. As to the kind of experiment: Antitrypanosomal activity against Trypanosoma cruzi MHOM/Pe/2011/Arequipa DTU 5 trypomastigotes infected in Balb/c mouse assessed as parasite-free stomach at 20 mg/kg, po pretreated once daily for 5 consecutive days starting from day 75 post infection followed by cyclophosphamide-induced immunosuppression on day 100 post infection every 4 days for a maximum of 3 doses measured on day 127 post infection by PCR method. It counts as functional, organism-based.

The nature of data set [10]: Cardiotoxicity in Balb/c mouse infected with Trypanosoma cruzi MHOM/Pe/2011/Arequipa DTU 5 trypomastigotes assessed as decrease in ratio of creatine kinase in muscle to brain at 20 mg/kg, po once daily for 5 consecutive days starting from day 10 post infection measured on day 16 post infection by biochemical analysis relative to control. Conditions: in vivo. It counts as toxicity, organism-based. Also noted: scale not given: the % may be the effect or the level left.

The nature of data set [11]: Cardiotoxicity in Balb/c mouse infected with Trypanosoma cruzi MHOM/Pe/2011/Arequipa DTU 5 trypomastigotes assessed as decrease in serum LDH level at 20 mg/kg, po once daily for 5 consecutive days starting from day 10 post infection measured on day 16 post infection by biochemical analysis relative to control. It counts as toxicity, organism-based. Also noted: scale not given: the % may be the effect or the level left. The following applies: in vivo.

The nature of data set [12]: Hepatotoxicity in Balb/c mouse infected with Trypanosoma cruzi MHOM/Pe/2011/Arequipa DTU 5 trypomastigotes assessed as decrease in serum ALT to GPT level at 20 mg/kg, po once daily for 5 consecutive days starting from day 10 post infection measured on day 16 post infection relative to control. It counts as toxicity, organism-based. Also noted: scale not given: the % may be the effect or the level left. Conditions: in vivo.

Data set [13] is described as follows: Hepatotoxicity in Balb/c mouse infected with Trypanosoma cruzi MHOM/Pe/2011/Arequipa DTU 5 trypomastigotes assessed as change in total bilirubin level at 20 mg/kg, po once daily for 5 consecutive days starting from day 75 post infection measured on day 127 post infection (reference value: 0.2 mg/dl). It counts as toxicity, organism-based. Conditions: in vivo.

Data set [14] can be described thus: Hepatotoxicity in Balb/c mouse infected with Trypanosoma cruzi MHOM/Pe/2011/Arequipa DTU 5 trypomastigotes assessed as decrease in alkaline phosphatase level at 20 mg/kg, po once daily for 5 consecutive days starting from day 10 post infection measured on day 127 post infection by biochemical analysis relative to control. It counts as toxicity, organism-based. Also noted: scale not given: the % may be the effect or the level left. Conditions: in vivo.

A short description of data set [15]: Hepatotoxicity in Balb/c mouse infected with Trypanosoma cruzi MHOM/Pe/2011/Arequipa DTU 5 trypomastigotes assessed as change in alkaline phosphatase level at 20 mg/kg, po once daily for 5 consecutive days starting from day 75 post infection measured on day 81 post infection (reference value: 167 U/L). It counts as toxicity, organism-based. The following applies: in vivo.

Data set [16] can be described thus: Nephrotoxicity in Balb/c mouse infected with Trypanosoma cruzi MHOM/Pe/2011/Arequipa DTU 5 trypomastigotes assessed as serum uric acid level at 20 mg/kg, po once daily for 5 consecutive days starting from day 75 post infection measured on day 127 post infection (reference value: 4.8 mg/dl). Conditions: in vivo. It counts as toxicity, organism-based.
The nature of data set [17]: Cardiotoxicity in Balb/c mouse infected with Trypanosoma cruzi MHOM/Pe/2011/Arequipa DTU 5 trypomastigotes assessed as change in ratio of creatine kinase in muscle to brain at 20 mg/kg, po once daily for 5 consecutive days starting from day 75 post infection measured on day 81 post infection (reference value: 751 U/L). It counts as toxicity, organism-based. Conditions: in vivo.

Data set [18] can be described thus: Cardiotoxicity in Balb/c mouse infected with Trypanosoma cruzi MHOM/Pe/2011/Arequipa DTU 5 trypomastigotes assessed as change in serum LDH level at 20 mg/kg, po once daily for 5 consecutive days starting from day 75 post infection measured on day 81 post infection (reference value: 5951 U/L). It counts as toxicity, organism-based. The following applies: in vivo.

Data set [19] is described as follows: Hepatotoxicity in Balb/c mouse infected with Trypanosoma cruzi MHOM/Pe/2011/Arequipa DTU 5 trypomastigotes assessed as decrease in ratio of serum AST to GOT level at 20 mg/kg, po once daily for 5 consecutive days starting from day 10 post infection measured on day 16 post infection relative to control. It counts as toxicity, organism-based. Also noted: scale not given: the % may be the effect or the level left. The following applies: in vivo.

Data set [20] can be described thus: Hepatotoxicity in Balb/c mouse infected with Trypanosoma cruzi MHOM/Pe/2011/Arequipa DTU 5 trypomastigotes assessed as increase in ratio of serum ALT to GPT level at 20 mg/kg, po once daily for 5 consecutive days starting from day 10 post infection measured on day 127 post infection by biochemical analysis relative to control. It counts as toxicity, organism-based. The following applies: in vivo.

Data set [21] is described as follows: Hepatotoxicity in Balb/c mouse infected with Trypanosoma cruzi MHOM/Pe/2011/Arequipa DTU 5 trypomastigotes assessed as increase in ratio of serum ALT to GPT level at 20 mg/kg, po once daily for 5 consecutive days starting from day 75 post infection measured on day 127 post infection relative to control. It counts as toxicity, organism-based. The following applies: in vivo.

Data set [22] relates to Trypanosoma cruzi. As to the kind of experiment: Inhibition of Trypanosoma cruzi MHOM/Pe/2011/Arequipa DTU 5 epimastigotes Fe-SOD at 50 uM by UV-Visible spectrophotometric method relative to control.

As to `O=C(Cn1ccnc1[N+](=O)[O-])NCc1ccccc1` [BENZNIDAZOLE], the Activity result is reported as “<= 10%” in data set [1], “<= 20%” in data set [2], “<= 20%” in [3] and “<= 20%” in [4].
Consider `Cl.Cl.Cl.NCCN(CCN)CCNCc1ccc2c(c1)Cc1ccccc1-2`, for which the result in the data set on Trypanosoma cruzi [5], in the data set on Trypanosoma cruzi [6], in the data set with Trypanosoma cruzi [7], in the data set with Trypanosoma cruzi [8] and with Trypanosoma cruzi [9] was Active. The Activity result in data set [10] is “<= 10%”; in data set [11], “<= 10%”; in data set [12], “<= 10%”; in data set [13] it was 0.2 mg/dL; in [14] it was “<= 10%”; in data set [15], 167 U/L.
In the case of `Cl.Cl.Cl.Cl.Cl.Cl.c1ccc2nc(CNCCN(CCNCc3ccc4ccccc4n3)CCNCc3ccc4ccccc4n3)ccc2c1`, the Activity in data set [16] was 4.8 mg/dL; in data set [17] it was 751 U/L; in [18], 6679 U/L; in [19], “<= 10%”; in data set [20], “<= 30%”; in data set [21] it was “<= 10%”. For the same molecule, in the data set on Trypanosoma cruzi [22], the inhibition was 82%.

What is called inhibition is the share of the control response that was lost under treatment.
